Measurements: US12252492B2, “Substituted fused pyrrolo-diazepinones and uses thereof” (Northwestern University, priority 2018, dated 2025)

Key:
Assay type in all cases: cell-based, human
[1] = tested on: SK-MEL-5; experiment: NCI60 one-dose screen, SK-MEL-5; conditions: SK-MEL-5 (Melanoma); NCI 60 one-dose, 10^-5 M
Procedure: (§1) Anti-cancer activity screening of all compounds was performed by the NCI Developmental Therapeutics Program (DTP) through their NCI60 screening initiative. Assay details can be found at the website dtp.cancer.gov/discovery_development/nci-60/methodology.htm. Information from this website is reproduced here for convenience.
(§2) As of early 2007 all compounds submitted to the NCI 60 Cell screen are tested initially at a single high dose (10^-5 M) in the full NCI 60 cell panel. Only compounds which satisfy pre-determined threshold inhibition criteria in a minimum number of cell lines will progress to the full 5-dose assay. The threshold inhibition criteria for progression to the 5-dose screen was selected to efficiently capture compounds with anti-proliferative activity based on careful analysis of historical DTP screening data. The threshold criteria may be updated as additional data becomes available.
(§3) The One-dose data will be reported as a mean graph of the percent growth of treated cells and will be similar in appearance to mean graphs from the 5-dose assay. […]
(§4) Following drug addition, the plates are incubated for an additional 48 h at 37° C., 5% CO2, 95% air, and 100% relative humidity. […] Bound stain is subsequently solubilized with 10 mM trizma base, and the absorbance is read on an automated plate reader at a wavelength of 515 nm. […]

[2] = tested on: T-47D; experiment: NCI60 one-dose screen, T-47D; conditions: T-47D (Breast Cancer); NCI 60 one-dose, 10^-5 M
Procedure: as §1, §2, §3, §4

[3] = tested on: A549/ATCC; experiment: NCI60 one-dose screen, A549; conditions: A549/ATCC (Non-Small Cell Lung Cancer); NCI 60 one-dose, 10^-5 M
Procedure: as §1, §2
The One-dose data will be reported as a mean graph of the percent growth of treated cells and will be similar in appearance to mean graphs from the 5-dose assay. The number reported for the One-dose assay is growth relative to the no-drug control, and relative to the time zero number of cells. This allows detection of both growth inhibition (values between 0 and 100) and lethality (values less than 0). This is the same as for the 5-dose assay, described below. For example, a value of 100 means no growth inhibition. A value of 40 would mean 60% growth inhibition. A value of 0 means no net growth over the course of the experiment. A value of −40 would mean 40% lethality. A value of −100 means all cells are dead. Information from the One-dose mean graph is available for COMPARE analysis.
The human tumor cell lines of the cancer screening panel are grown in RPMI 1640 medium containing 5% fetal bovine serum and 2 mM L-glutamine. For a typical screening experiment, cells are inoculated into 96 well microtiter plates in 100 μL at plating densities ranging from 5,000 to 40,000 cells/well depending on the doubling time of individual cell lines. After cell inoculation, the microtiter plates are incubated at 37° C., 5% CO2, 95% air and 100% relative humidity for 24 h prior to addition of experimental drugs.
After 24 h, two plates of each cell line are fixed in situ with TCA, to represent a measurement of the cell population for each cell line at the time of drug addition (Tz). Experimental drugs are solubilized in dimethyl sulfoxide at 400-fold the desired final maximum test concentration and stored frozen prior to use. At the time of drug addition, an aliquot of frozen concentrate is thawed and diluted to twice the desired final maximum test concentration with complete medium containing 50 μg/ml gentamicin. Additional four, 10-fold or ½ log serial dilutions are made to provide a total of five drug concentrations plus control. Aliquots of 100 μl of these different drug dilutions are added to the appropriate microtiter wells already containing 100 μl of medium, resulting in the required final drug concentrations.
Following drug addition, the plates are incubated for an additional 48 h at 37° C., 5% CO2, 95% air, and 100% relative humidity. For adherent cells, the assay is terminated by the addition of cold TCA. Cells are fixed in situ by the gentle addition of 50 μl of cold 50% (w/v) TCA (final concentration, 10% TCA) and incubated for 60 minutes at 4° C. The supernatant is discarded, and the plates are washed five times with tap water and air dried. Sulforhodamine B (SRB) solution (100 μl) at 0.4% (w/v) in 1% acetic acid is added to each well, and plates are incubated for 10 minutes at room temperature. After staining, unbound dye is removed by washing five times with 1% acetic acid and the plates are air dried. Bound stain is subsequently solubilized with 10 mM trizma base, and the absorbance is read on an automated plate reader at a wavelength of 515 nm. […]

[4] = tested on: MALME-3M; experiment: NCI60 one-dose screen, MALME-3M; conditions: MALME-3M (Melanoma); NCI 60 one-dose, 10^-5 M
Procedure: as §1, §2, §3, §4

[5] = tested on: HCT-116; experiment: NCI60 one-dose screen, HCT-116; conditions: HCT-116 (Colon Cancer); NCI 60 one-dose, 10^-5 M
Procedure: as §1, §2, §3, §4

[6] = tested on: NCI-H226; experiment: NCI60 one-dose screen, NCI-H226; conditions: NCI-H226 (Non-Small Cell Lung Cancer); NCI 60 one-dose, 10^-5 M
Procedure: as §1, §2, §3, §4

SMILES	Growth Percent [1] [%]	Growth Percent [2] [%]	Growth Percent [3] [%]	Growth Percent [4] [%]	Growth Percent [5] [%]	Growth Percent [6] [%]
CC(=O)N1c2ccccc2NC2=C(C(=O)N(C)C2(C)C)C1c1ccccc1 (stereo not drawn) [NUCC-60872]	27.50	28.72	80.32	44.26	24.91	91.06
CC(=O)N1c2ccccc2NC2=C(C(=O)N(Cc3ccccc3)C2(C)C)C1c1ccco1 (stereo not drawn) [NUCC-608455]	7.88	35.10	22.02	69.89	7.52	65.66
